In assay [1] the target is T1, mouse ATB^0,+ (Mus musculus, UniProt Q9JMA9).
T1 sequence (Q9JMA9 1-638): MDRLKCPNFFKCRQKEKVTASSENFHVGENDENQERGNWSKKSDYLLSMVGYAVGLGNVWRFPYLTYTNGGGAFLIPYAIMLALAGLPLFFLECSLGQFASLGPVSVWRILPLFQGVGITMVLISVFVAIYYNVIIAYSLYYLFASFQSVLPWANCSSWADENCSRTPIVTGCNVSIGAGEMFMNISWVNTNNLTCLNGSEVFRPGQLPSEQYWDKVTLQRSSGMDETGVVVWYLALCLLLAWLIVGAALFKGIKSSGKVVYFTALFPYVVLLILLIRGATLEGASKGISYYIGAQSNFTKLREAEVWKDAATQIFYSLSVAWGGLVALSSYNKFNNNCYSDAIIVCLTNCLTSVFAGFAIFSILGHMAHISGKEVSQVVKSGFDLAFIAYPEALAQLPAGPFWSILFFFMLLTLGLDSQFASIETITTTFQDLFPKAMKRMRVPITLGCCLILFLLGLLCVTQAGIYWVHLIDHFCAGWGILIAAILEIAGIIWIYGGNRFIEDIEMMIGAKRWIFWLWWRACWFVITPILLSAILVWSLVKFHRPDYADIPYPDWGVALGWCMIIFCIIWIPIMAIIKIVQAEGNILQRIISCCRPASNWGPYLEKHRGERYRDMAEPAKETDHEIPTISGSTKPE
The note with it: D-amino acid 1 mM; NaCl pH 7.5.

In assay [2] the target is T2, b^0,+ (b^0,+AT/4F2hc) (Mus musculus, UniProt Q9QXA6).
T2 construct: expressed in transfected cells; host or cells: HRPE cells
T2 sequence (Q9QXA6 1-487): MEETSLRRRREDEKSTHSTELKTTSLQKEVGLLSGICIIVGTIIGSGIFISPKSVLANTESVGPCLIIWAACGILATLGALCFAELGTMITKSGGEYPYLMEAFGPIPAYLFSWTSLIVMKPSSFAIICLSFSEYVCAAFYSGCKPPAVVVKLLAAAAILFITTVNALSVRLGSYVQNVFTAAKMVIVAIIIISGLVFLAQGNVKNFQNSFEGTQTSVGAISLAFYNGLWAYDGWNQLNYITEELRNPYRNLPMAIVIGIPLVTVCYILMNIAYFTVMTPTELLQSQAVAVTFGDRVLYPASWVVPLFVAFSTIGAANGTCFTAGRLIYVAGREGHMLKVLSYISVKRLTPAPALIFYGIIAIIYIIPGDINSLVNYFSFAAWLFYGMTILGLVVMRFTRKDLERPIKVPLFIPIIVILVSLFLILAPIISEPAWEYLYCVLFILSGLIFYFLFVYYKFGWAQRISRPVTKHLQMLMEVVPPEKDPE
Briefly: D-[3H]-serine transport in HRPE cells transfected with transporter cDNA. Format: cell-based. The note with it: D-[3H]-serine 5 μM. As to the method: (§1) Transport of D-[^3H]-serine (5 μM) was measured in HRPE cells transfected with cDNA of each transporter.
(§2) The present inventors evaluated the function of 10 different amino acid transporter clones with respect to transport of D-serine in heterologous expression systems (FIG. 11). All of these transporters are expressed in the intestinal tract. The list of the transporters tested include three energy-independent, heterodimeric facilitative transporters (L1, L2, and b^0,+), three subtypes of the Na^+-coupled system A (ATA1, ATA2, and ATA3), two subtypes of the Na^+- and H^+-coupled system N (SN1 and SN2), the Na^+-coupled system ATB^0, and the Na^+- and Cl^−-coupled system ATB^0,+. […] The ability to transport D-serine was the highest for the Na^+- and Cl^−-coupled transporter ATB^0,+. ATB^0,+ belongs to the gene family of neurotransmitter transporters whose transport function is energized by multiple driving forces, namely a Na^+ gradient, a Cl^− gradient, and membrane potential. […] Based on the energetics of these two transport systems, ATB^0,+ is expected to play the leading role in this process.

For assay [3], the target named is T3, ATB^0,+ (Mus musculus, UniProt Q9JMA9).
T3 construct: expressed in transfected cells; host or cells: HRPE cells
T3 sequence (Q9JMA9 1-638): T1 sequence (Q9JMA9 1-638)
The assay is described as above. The assay is classed as cell-based. Particulars: D-[3H]-serine 5 μM. As to the method: as §1, §2

For assay [4], the target named is T4, SN1 (Homo sapiens, UniProt Q99624).
T4 construct: expressed in transfected cells; host or cells: HRPE cells
T4 sequence (Q99624 whole entry, species assumed): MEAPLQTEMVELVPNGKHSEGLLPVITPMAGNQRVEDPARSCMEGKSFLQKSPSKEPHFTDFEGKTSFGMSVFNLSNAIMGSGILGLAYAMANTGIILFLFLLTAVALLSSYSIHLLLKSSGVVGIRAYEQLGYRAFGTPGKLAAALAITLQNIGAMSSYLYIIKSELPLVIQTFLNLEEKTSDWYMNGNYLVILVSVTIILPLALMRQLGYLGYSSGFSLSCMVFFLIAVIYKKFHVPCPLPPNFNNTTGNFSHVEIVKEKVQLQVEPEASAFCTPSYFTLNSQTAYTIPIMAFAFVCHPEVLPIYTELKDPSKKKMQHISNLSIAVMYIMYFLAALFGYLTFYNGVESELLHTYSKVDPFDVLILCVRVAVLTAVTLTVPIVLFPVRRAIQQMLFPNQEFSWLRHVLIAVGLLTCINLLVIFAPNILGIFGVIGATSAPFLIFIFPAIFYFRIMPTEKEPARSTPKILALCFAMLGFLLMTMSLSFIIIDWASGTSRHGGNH
Described as above. The assay is classed as cell-based. The note with it: D-[3H]-serine 5 μM. As to the method:
as §1, §2

Assay [5] concerns the target T5, ATA1 (Homo sapiens, UniProt Q9H2H9).
T5 construct: expressed in transfected cells; host or cells: HRPE cells
T5 sequence (Q9H2H9 1-487): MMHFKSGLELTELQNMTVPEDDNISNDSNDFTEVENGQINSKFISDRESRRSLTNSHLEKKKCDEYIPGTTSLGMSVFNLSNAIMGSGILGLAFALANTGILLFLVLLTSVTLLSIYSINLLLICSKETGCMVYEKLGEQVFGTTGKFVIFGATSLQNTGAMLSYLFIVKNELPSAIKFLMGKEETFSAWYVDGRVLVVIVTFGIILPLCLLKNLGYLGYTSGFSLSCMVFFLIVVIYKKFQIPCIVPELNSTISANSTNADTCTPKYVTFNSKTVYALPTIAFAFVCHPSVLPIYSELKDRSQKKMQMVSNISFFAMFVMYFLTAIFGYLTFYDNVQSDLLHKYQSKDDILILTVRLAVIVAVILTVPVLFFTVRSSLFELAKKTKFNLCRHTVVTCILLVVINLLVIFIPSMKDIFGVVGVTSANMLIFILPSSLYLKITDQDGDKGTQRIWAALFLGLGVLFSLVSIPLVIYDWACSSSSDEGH
The description is as above. Format: cell-based. Particulars: D-[3H]-serine 5 μM. As to the method: as §1, §2

Assay [6] concerns the target T6, ATB^0 (Homo sapiens, UniProt Q15758).
T6 sequence (Q15758 1-541): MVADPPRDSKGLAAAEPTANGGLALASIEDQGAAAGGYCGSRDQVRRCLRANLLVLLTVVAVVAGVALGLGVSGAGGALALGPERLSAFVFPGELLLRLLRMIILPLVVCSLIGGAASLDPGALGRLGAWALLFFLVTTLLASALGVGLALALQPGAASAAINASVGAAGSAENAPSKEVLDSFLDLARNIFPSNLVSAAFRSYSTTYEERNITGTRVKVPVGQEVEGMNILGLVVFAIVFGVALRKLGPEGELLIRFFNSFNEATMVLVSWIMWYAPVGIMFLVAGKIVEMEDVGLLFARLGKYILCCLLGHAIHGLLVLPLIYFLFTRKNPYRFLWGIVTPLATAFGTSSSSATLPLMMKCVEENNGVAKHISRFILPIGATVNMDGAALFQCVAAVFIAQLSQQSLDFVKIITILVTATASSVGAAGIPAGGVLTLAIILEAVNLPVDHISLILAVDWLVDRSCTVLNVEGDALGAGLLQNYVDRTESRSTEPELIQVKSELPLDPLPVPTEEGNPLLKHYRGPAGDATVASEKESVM
Described as above. The assay is classed as cell-based. Also on record: expressed in transfected cells; host or cells: HRPE cells. Particulars: D-[3H]-serine 5 μM. Here is the method: as §1, §2

As for `N[C@H](CO)C(=O)O` [D-Serine, D-serine], the “Current in X. laevis oocytes (nA), D-isomer” value in assay [1] is given as 267 ± 23 nA. The D-serine transport entry is “significant ability to transport” in assay [2]; “highest” in assay [3]; “did not transport D-serine” in assay [4]; “showed D-serine transport activity” in assay [5]; “able to transport D-serine to a marked extent” in assay [6].

Source of the values: patent US20040142317A1, “Use of amino acid transporter atbo,+ as a delivery system for drugs and prodrugs” (priority 2003, published 2004).
